# Assay results published in the supplement of paper PMC10307832.
# Legend:
# Assay in all cases: relative viability (nuclei count vs DMSO), 5 days (fraction); higher = more cells survive
# QS11 = compound: C1CC2=C(C1)C=C(C=C2)OC3=NC(=C4C(=N3)N(C=N4)CC5=CC=C(C=C5)C6=CC=CC=C6)N[C@@H](CC7=CC=CC=C7)CO [QS11]
# How it was run: (§1)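 A plate was accepted only when its control CV was below 25% and the cells had doubled at least once. Viability is defined from nuclear counts as treated wells divided by vehicle wells, with the median taken across plates. That median covers lung cancer cell lines grown in 1536-well plates, dosed by pinning at five √10-spaced library-drug concentrations, and counted in MetaXpress from 4× Hoechst images after 5 days.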
# Darinaparsin = compound: C[As](C)SC[C@H](NC(=O)CC[C@H](N)C(=O)O)C(=O)NCC(=O)O [Darinaparsin]
# How it was run: as §1
# AZ628 = compound: CC1=C(C=C(C=C1)NC(=O)C2=CC(=CC=C2)C(C)(C)C#N)NC3=CC4=C(C=C3)N=CN(C4=O)C [AZ628]
# How it was run: as §1
# QS11 + Trametinib = compound: C1CC2=C(C1)C=C(C=C2)OC3=NC(=C4C(=N3)N(C=N4)CC5=CC=C(C=C5)C6=CC=CC=C6)N[C@@H](CC7=CC=CC=C7)CO [QS11] + CC(=O)Nc1cccc(-n2c(=O)n(C3CC3)c(=O)c3c(Nc4ccc(I)cc4F)n(C)c(=O)c(C)c32)c1 [Trametinib] (partner 0.02 µM)
# How it was run: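 The day after seeding in 1536-well plates, lung cancer cell lines were treated by pin tool with a single drug, or with a fixed anchor-drug dose together with five library-drug doses (not always all listed) in √10 steps. After 5 days, a combined fix-and-stain solution (final 0.05% Triton X-100, 1% formaldehyde, 1 ug/ml Hoechst) was added. Nuclei counted on 4× images gave relative viability as treated counts over vehicle counts, reported as the median of duplicate plates.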
Cell Line,relative viability (QS11; 0.08 µM),relative viability (QS11; 0.253 µM),relative viability (QS11; 0.8 µM),relative viability (QS11; 2.53 µM),relative viability (QS11; 8 µM),relative viability (Darinaparsin; 0.08 µM),relative viability (Darinaparsin; 0.8 µM),relative viability (Darinaparsin; 2.53 µM),relative viability (Darinaparsin; 8 µM),relative viability (AZ628; 0.08 µM),relative viability (AZ628; 0.253 µM),relative viability (AZ628; 0.8 µM),relative viability (AZ628; 2.53 µM),relative viability (AZ628; 8 µM),relative viability (QS11 + Trametinib; first compound 0.08 µM),relative viability (QS11 + Trametinib; first compound 0.253 µM),relative viability (QS11 + Trametinib; first compound 0.8 µM),relative viability (QS11 + Trametinib; first compound 2.53 µM),relative viability (QS11 + Trametinib; first compound 8 µM)
LU99A,0.868,0.99,1.02,1.02,0.834,0.929,1.05,0.991,1.09,0.883,0.807,0.875,1.03,0.65,0.532,0.626,0.517,0.5,0.533
NCI-H358,0.92,0.99,1.11,1.37,1.01,1.07,0.872,0.832,0.984,0.846,0.654,0.598,0.583,0.435,0.117,0.136,0.167,0.153,0.157
NCI-H1666,0.935,0.984,0.776,0.793,0.667,1.04,0.948,1.24,1.05,0.965,0.826,0.885,0.813,0.901,0.798,0.852,0.868,0.8,0.749
LOU-NH91,0.979,0.93,0.78,0.98,0.966,1.03,0.921,0.954,1.02,0.971,0.926,0.958,0.963,0.797,0.797,0.742,0.743,0.819,0.767
RERF-LC-KJ,0.98,0.954,0.912,0.974,0.981,1.05,1.07,0.944,1.12,1.01,0.981,0.883,0.965,0.887,0.825,0.902,0.843,0.865,0.76
NCI-H2085,0.946,0.953,0.968,1,1.09,0.998,0.985,0.958,0.999,1.08,0.98,1,1.03,0.882,0.512,0.483,0.43,0.513,0.508
NCI-H1793,0.866,0.807,1.05,1.07,1.09,0.981,0.934,0.707,1.02,1.1,0.829,0.957,0.783,0.61,0.491,0.392,0.408,0.469,0.759
HCC-366,1.01,1.01,,0.98,0.447,1.01,1.07,1.03,1.32,1.01,0.952,0.884,0.955,0.876,0.348,0.346,,0.218,0.116
NCI-H596,0.931,0.833,1.15,0.969,1.09,0.937,1.05,0.938,1.05,1.05,1.03,1.1,1.06,1.01,0.776,0.755,0.692,0.683,0.706
NCI-H2126,0.994,0.944,0.905,0.965,0.799,1.1,1.03,0.956,1.12,1.04,1,0.888,1.02,0.985,0.588,0.562,0.567,0.596,0.508
EMC-BAC-2,1.02,0.964,0.86,0.986,0.79,1.18,0.942,1.04,1.01,1.05,1,1.04,1.07,1.09,0.814,0.954,0.573,0.885,0.804
H3255,0.947,1.01,,1.01,1.08,1.02,1.01,0.896,1.01,0.996,0.908,0.975,1.02,0.693,0.577,0.703,,0.631,0.585
NCI-H838,0.99,0.915,0.784,0.908,0.872,0.997,0.931,0.991,1.14,1.02,0.992,0.951,0.932,0.868,0.558,0.535,0.355,0.469,0.383
NCI-H2009,1.03,1.01,0.756,0.902,0.894,1.12,1.03,0.949,1.03,0.948,0.933,0.598,0.711,0.379,0.242,0.32,0.24,0.279,0.256
HCC-15,1.02,1.06,0.693,0.971,0.915,1.18,1,0.992,1.14,1.02,0.924,0.858,0.86,0.56,0.307,0.388,0.335,0.319,0.314
NCI-H1395,0.833,0.976,1,0.881,0.986,0.995,0.883,0.815,0.938,1.02,0.794,0.92,0.92,0.832,0.935,1.04,1.19,1.01,1.03
CAL-12T,0.96,0.986,0.96,0.908,0.873,1.15,1,0.985,1.11,0.987,0.831,0.81,0.806,0.685,0.313,0.328,0.355,0.367,0.358
